Data set [1] concerns passive cutaneous anaphylaxis. Kind of data set: passive cutaneous anaphylaxis test (PCA), antiallergic activity. The class given is in vivo. As to conditions: Rattus norvegicus, 0.25 h; rats, oral, allergen i.v. 15 minutes after administration; read-out: ID 50 per os (reduction of 50% of the surface area of the colored spot). As to the method: This activity is determined in rats by means of the passive cutaneous anaphylaxis test (PCA) (see J. Goose and A. M. J. N. Blair, Immunology,16,(1969),749-760; and U. Martin and D. Roemer, Arzneimittel-Forschung,28,(5), (1978),770-782).
Female rats are used, the sides of which have been partly shaved. Into the zone thus shaved there is injected intradermally, for passive sensitization of the animals, 0.05 ml of IGE antiovalbumin serum at a dilution such that, at the time of the PCA test, a distinct spot with a surface area of about 100 mm^2 appears at the point of injection.
72 Hours after the injection, 0.25 ml of a solution of allergen containing a coloring agent (5 mg of ovalbumin and 6 mg Evans Blue in 0.25 ml of a 0.9% aqueous solution of sodium chloride) is administered intravenously. At the point of intradermal injection, there appears a distinct blue spot, the surface of which is measured.
In order to test the activity of the compound according to the present invention, the procedure is carried out in the same manner; however:
the test compound is administered orally 72 hours after injection of the serum;
15 minutes after this administration, 0.25 ml of the solution of the allergen is injected intravenously;
30 minutes after the administration of the allergen, the surface of the blue spot is measured.
The following Table gives the immunological doses (ID 50 in μmol/kg) which bring about, on average of the total number of animals submitted to the test, a reduction of 50% of the surface area of the colored spot.

Data set [2] has as its system bronchospasms induced by serotonin. Kind of data set: Konzett-Roessler bronchospasm test, serotonin-induced. The class given is in vivo. The conditions noted are these: Cavia porcellus, iv, guinea pigs, i.v., read-out: dose which inhibits 50% of the induced bronchospasms, Serotonin. As to the method:
(§1) These activities were measured in guinea pigs by the method of H. Konzett and R. […] Anaesthetized and curarized guinea pigs are subjected to artificial ventilation. The endotracheal pressure is recorded. Repeated bronchial spasms are induced by successive and progressive intravenous injections of respectively acetylcholine, histamine and serotonin. The test compounds are also administered intravenously.

In data set [3] the test system is bronchospasms induced by histamine. Kind of data set: Konzett-Roessler bronchospasm test, histamine-induced (antihistaminic activity). Format: in vivo. As to conditions: guinea pigs, i.v.; for ED50: Cavia porcellus, iv, histamine-induced, read-out: dose which inhibits 50% of the induced bronchospasms, Histamine. As to the method:
as §1

Data set [4] has as its system bronchospasms induced by acetylcholine. As to the kind of experiment: Konzett-Roessler bronchospasm test, acetylcholine-induced. As to conditions: Cavia porcellus, iv, guinea pigs, i.v., read-out: dose which inhibits 50% of the induced bronchospasms, Acetylcholine. The class given is in vivo. How it is done:
as §1

For data set [5], the system named is mice. Kind of data set: General behaviour of mice (Irwin's test), tranquilization. Format: in vivo. As to conditions: male mice, intraperitoneal. How it is done: The behaviour is studied by means of Irwin's test (see S. Irwin, "General philosophy and methodology of screening: a multidimensional approach"; Gordon Research Conference on Medicinal Chemistry, Aug. 3-7, 1959, at Colby Junior College, New London).
(§2) Progressive doses of the test compounds are administered intraperitoneally to groups of three male mice (body weight 18 to 22 g) and the general behaviour of the animals is observed according to known criteria. The reference compounds used are the following:
The following Table gives the doses (in mg/kg) which induce the first manifestations of tranquilization in the animals: […]

Data set [6] concerns mice. As to conditions: mouse, in vivo, ip. How it is done: as §2
Furthermore, in this test, the toxicity of the compounds according to the present invention appears to be very low. This toxicity, determined by intraperitoneal administration in mice (dose which brings about the death of two animals out of three), is given in the following Table: […]

The test system of data set [7] is respiratory spasm induced by pilocarpine. Kind of data set: pilocarpine dog test, broncholytic activity. Format: in vivo. As to conditions: dogs, i.v. As to the method:
Anaesthetized and curarized dogs are subjected to artificial ventilation. The endotracheal pressure is recorded. A constant respiratory spasm is induced by the continuous intravenous perfusion of pilocarpine. The test substances are also administered intravenously.

Data set [8] is described as follows: Oral toxicity LD50 in rats. The conditions noted are these: rat, in vivo. As to the method:
(§3) The compounds according to the present invention have a very low toxicity. The toxicity LD50 (in mg/kg) is determined by oral administration to rats and mice. Thus, in the case of compound A, this toxicity is 1903 mg/kg in rats and 959 mg/kg in mice.

The nature of data set [9]: Oral toxicity LD50 in mice. As to conditions: mouse, in vivo. How it is done: as §3

As a reminder, the LD50 is the dose at which mortality reaches 50%. A higher LD50 goes with lower toxicity.

Molecules are shown by their SMILES. Where a name gives a salt, the structure may show the parent alone.

Consider `NC(=O)COCCN1CCC(=C(c2ccccc2)c2ccccc2Cl)CC1` [compound F, 2-[2-[4-[(2-chlorophenyl)phenylmethylene-1-piperidinyl]ethoxy]-acetamide hydrochloride], for which the ED50 in data set [1] was 66 µmol/kg; in data set [2], 0.055 mg/kg; in data set [3] it was 0.551 mg/kg; in data set [4], greater than 1.35 mg/kg. Moreover, in [5], the “"Tranquilizing" dose (first manifestations of tranquilization)” value (“"Tranquilizing" dose” for short) is “no sedative effect at all”. Also, the “Toxicity (dose which brings about the death of two animals out of three)” value (“Toxicity” for short) in data set [6] came out at 421 mg/kg.

For the compound `Cl.O=C(O)COCCN1CCC(=C(c2ccccc2)c2ccc(Cl)cc2)CC1` [compound I, 2-[2-[4-[(4-chlorophenyl)phenylmethylene]-1-piperidinyl]ethoxy]-acetic acid hydrochloride], the ED50 was determined as 100 µmol/kg in [1], 1.18 mg/kg in [2], 0.413 mg/kg in [3] and 13.5 mg/kg in data set [4]. Moreover, the “"Tranquilizing" dose” value in [5] worked out at 76 mg/kg. In addition, in [6], the “Toxicity” value is reported as 844 mg/kg.

On to `Cl.O=C(O)COCCN1CCC(=C(c2ccccc2)c2ccccc2)CC1` [compound B, 2-[2-[4-(diphenylmethylene)-1-piperidinyl]ethoxy]-acetic acid hydrochloride], for which the ED50 was 39 µmol/kg in data set [1], 0.206 mg/kg in data set [2], 0.037 mg/kg in data set [3] and greater than 82.5 mg/kg in data set [4]. For the same compound, the “"Tranquilizing" dose” value in [5] was found to be 105 mg/kg. For the same compound, the “Toxicity” value in data set [6] is given as 233 mg/kg.

As to `COc1ccc(C(=C2CCN(CCOCC(=O)O)CC2)c2ccccc2)cc1.Cl` [compound M, 2-[2-[4-[(4-methoxyphenyl)phenylmethylene]-1-piperidinyl]ethoxy]-acetic acid hydrochloride], the ED50 in data set [1] was 208 µmol/kg; in [2], 0.893 mg/kg; in [3], 0.181 mg/kg; in data set [4], greater than 41.8 mg/kg. The “"Tranquilizing" dose” value in data set [5] came to 125 mg/kg. The “Toxicity” value in data set [6] is given as 418 mg/kg.

For `Cl.O=C(O)COCCOCCN1CCC(=C(c2ccccc2)c2ccc(Cl)cc2)CC1` [compound J, 2-[2-[2-[4-[(4-chlorophenyl)phenylmethylene]-1-piperidinyl]ethoxy]ethoxy]-acetic acid hydrochloride], the ED50 in data set [1] is 100 µmol/kg; in [2] it was 0.796 mg/kg; in [3], 0.283 mg/kg; in data set [4] it was greater than 46.6 mg/kg. Besides, the “"Tranquilizing" dose” value in [5] is listed as 47 mg/kg. Also, in data set [6], the “Toxicity” value stood at 140 mg/kg.

`Cn1c(=O)c2[nH]cnc2n(C)c1=O` [theophylline, reference compound]: in data set [7] (3200 μg/kg), the “reduction of the intensity of the induced spasm” value is 35%.

As for `O=C(O)COCCN1CCC(=C(c2ccccc2)c2ccc(F)cc2)CC1` [compound L, 2-[2-[4-[(4-fluorophenyl)phenylmethylene]-1-piperidinyl]ethoxy]-acetic acid], the ED50 is 34 µmol/kg in data set [1], 0.198 mg/kg in data set [2], 0.058 mg/kg in data set [3] and greater than 11.8 mg/kg in [4]. Besides, the “"Tranquilizing" dose” value in [5] is reported as 110 mg/kg. For the same compound, in data set [6], the “Toxicity” value came out at 369 mg/kg.

Take `Cl.O=C(O)COCCOCCN1CCC(=C(c2ccccc2)c2ccccc2)CC1` [compound A, 2-[2-[2-[4-(diphenylmethylene)-1-piperidinyl]ethoxy]ethoxy]-acetic acid hydrochloride]: the ED50 in data set [1] was 133 µmol/kg; in data set [2], 2.56 mg/kg; in data set [3] it was 2.65 mg/kg; in data set [4], 4.13 mg/kg. In addition, the “antihistaminic activity 4 hours after injection” value in data set [3] (1 mg/kg, 4 hours) was “retains this activity”. Also, the “antihistaminic activity after 90 minutes” value in data set [3] (1 mg/kg, after 90 minutes) worked out at 100%. In addition, the “reduction of the intensity of the induced spasm” value in data set [7] (320 μg/kg) turned out to be 50%. Further, the “broncholytic activity compared with theophylline (in words)” value in data set [7] (vs theophylline) is “clearly superior to that of theophylline”. Further, the “"Tranquilizing" dose” value in [5] was determined as 130 mg/kg. In addition, the “Toxicity” value in data set [6] was determined as 432 mg/kg. The LD50 in data set [8] came out at 1900 mg/kg; in [9] it was 959 mg/kg.
